Reference: ChEMBL document CHEMBL1133580, “Successful virtual screening of a chemical database for farnesyltransferase inhibitor leads” (J Med Chem, 2000)
Calls of active or inactive are those of the source. No cut-off for these calls is given here.

Assays:
Type in all cases: protein-complex assay
[1] = target: T1, Protein farnesyltransferase (Rattus norvegicus) (UniProt Q04631+Q02293); test: In vitro inhibition of farnesyl transferase (FT) by using FT [3H]-SPA kit at the dose of 500 uM
[2] = target: T1, Protein farnesyltransferase (Rattus norvegicus); test: In vitro inhibition of farnesyl transferase (FT) by using FT [3H]-SPA kit; IA is inactive
[3] = target: T1, Protein farnesyltransferase (Rattus norvegicus); test: In vitro inhibition of farnesyl transferase (FT) by using FT [3H]-SPA kit at the dose of 100 uM
[4] = target: Protein farnesyltransferase (Rattus norvegicus, UniProt Q02293+Q04631); test: In vitro inhibition of Farnesyltransferase (FT) by using FT [3H]-SPA kit.

| Compound | inhibition [2] | inhibition [3] [%] | other results |
| --- | --- | --- | --- |
| O=[N+]([O-])c1cc(C(F)(F)F)cc([N+](=O)[O-])c1Oc1ccc(S(=O)(=O)N2CCOCC2)cc1 | – | – | inhibition [1]: 50.8% |
| O=C(Cc1c(Cl)cc(Cl)cc1Cl)C(=O)Oc1c(Cl)cc(Cl)cc1Cl | inactive | – | – |
| O=C(NC(=O)C(c1ccc(Cl)cc1)c1ncc(C(F)(F)F)cc1Cl)Nc1ccc(Cl)cc1 (stereo not drawn) | inactive | – | – |
| COc1ccc(C=C(C(=O)c2ccccc2)C(=O)c2ccccc2)cc1 | – | 30 | – |
| Cc1ccc(S(=O)(=O)NC2(Nc3cccc(C)c3)C(Cl)=C(Cl)C(=O)C(Cl)(Cl)C2(Cl)Cl)cc1 (stereo not drawn) | – | – | inhibition [1]: 24.9% |
| O=C1c2cc([N+](=O)[O-])cc(C(=O)N3CCCCC3)c2-c2c1cc([N+](=O)[O-])cc2[N+](=O)[O-] | – | – | IC50 [4]: 96 µM |
| CCN(CC#N)c1ccc(/C=N/c2ccc(SC)cc2)cc1 | – | – | inhibition [1]: 15.8% |
| CN(C)c1ccc(C(=O)N/N=C/c2ccccc2[N+](=O)[O-])cc1 | – | – | inhibition [1]: 28.3% |
| O=C(Cc1cccc2ccccc12)NC(NC(=S)N1CCOCC1)C(Cl)(Cl)Cl (stereo not drawn) | – | 23.8 | – |
| Cc1ccc(S(=O)(=O)N(C)c2ccc(Cl)cc2C2=NCC(C)(C)c3ccccc32)cc1 | – | 16.8 | – |
| COc1ccc(CCN2C(=O)CS/C2=N\c2c(C)cccc2C)cc1OC | inactive | – | – |
| COc1cccc(C2Nc3ccccc3CN2NS(=O)(=O)c2ccc(C)cc2)c1O (stereo not drawn) | – | – | inhibition [1]: 16.8% |
| Cc1cc(C)c(S(=O)(=O)Cc2ccccc2)c(OC(C)C)n1 | inactive | – | – |
| CC(=O)c1cc(C(=O)c2ccc(F)cc2)n2cnc3cc(F)ccc3c12 | – | 24.5 | – |
| NC(=O)c1cc2c(c([N+](=O)[O-])c1)-c1c(cc(C(N)=O)cc1[N+](=O)[O-])C2=O | – | – | inhibition [1]: 27.3% |
| Nc1c(C(=O)Nc2ccccc2)sc2nc3c(c(-c4cccnc4)c12)CCC3 | – | – | inhibition [1]: 23.9% |
| COc1cccc(NS(=O)(=O)c2ccc(-c3ccc(S(=O)(=O)Nc4cccc(OC)c4)s3)s2)c1 | inactive | – | – |
| CCCCCCn1c(N)c(C#N)c2ccc([N+](=O)[O-])cc2c1=O | – | 32.2 | – |
| O=C1c2cccc([N+](=O)[O-])c2C(=O)N1c1ccc(S(=O)(=O)c2ccc(N3C(=O)c4cccc([N+](=O)[O-])c4C3=O)cc2)cc1 | inactive | – | – |

| Compound | inhibition [2] | inhibition [3] [%] | other results |
| --- | --- | --- | --- |
| COc1ccccc1/N=C(\S)NC1CCCCCCCCCCC1 | inactive | – | – |
| O=C(Nc1ccc(F)cc1[N+](=O)[O-])Oc1ccc2cc(Br)ccc2c1 | – | 26.4 | – |
| CC(C)C(NC(=O)OCc1ccccc1)C(=O)NC(C)(C)C (stereo not drawn) | inactive | – | – |
| CC(=O)OCC(COC(C)=O)(CN1C(=O)c2ccccc2C1=O)CN1C(=O)c2ccccc2C1=O | – | – | inhibition [1]: 60.2% |
| Cc1c(/N=C/N(C(=O)c2ccccc2)c2cccc([N+](=O)[O-])c2C)cccc1[N+](=O)[O-] | – | – | inhibition [1]: 17% |
| Clc1ccc(-c2cc(-c3csc(N/N=C/c4ccccc4)n3)on2)c(Cl)c1 | inactive | – | – |
| N=C(NOC(=O)Nc1ccc(Cl)cc1)c1ccc(OCc2ncc(C(F)(F)F)cc2Cl)cc1 | inactive | – | – |
| O=[N+]([O-])c1ccc(-c2csc(-c3ccc(Cl)cc3)n2)cc1CS(=O)(=O)c1ccc(Cl)cc1 | inactive | – | – |
| O=C(Oc1cc(S(=O)(=O)c2ccccc2)ccc1[N+](=O)[O-])c1cccnc1Cl | – | 19.7 | – |
| Cc1cc(-c2nc(-c3ccc(C(F)(F)F)cc3)no2)n(C)n1 | inactive | – | – |
| O=[N+]([O-])c1ccc(C2CC(c3cccnc3)=NN2c2ccccc2)cc1 (stereo not drawn) | – | 43.9 | – |
| Cc1ccc(S(=O)(=O)C(Cl)(Cl)S(=O)(=O)c2ccc(C)cc2)cc1 | – | 41.6 | – |
| CSc1nc(N/C=C(\C#N)S(=O)(=O)c2ccccc2Cl)nc(N(C)C)n1 | inactive | – | – |
| O=C(N/N=C/c1ccccc1O)N(c1ccccc1)c1ccccc1 | inactive | – | – |
| Cc1c(-c2ccnc(SCc3ccccc3)n2)sc2ccc(Cl)cc12 | inactive | – | – |
| O=C1NC(=S)S/C1=C\c1ccccc1I | – | 39.2 | – |
| COc1cc(C(c2c(O)oc3ccccc3c2=O)c2c(O)oc3ccccc3c2=O)cc(OC)c1OC | – | 27.8 | – |
| CCN(CC)c1cccc(OC(=O)Nc2cccc(C(F)(F)F)c2)c1 | – | – | inhibition [1]: 21.2% |
| O=C(OCC(F)(F)C(F)(F)C(F)(F)C(F)(F)F)c1cc([N+](=O)[O-])cc2c1-c1c(cc([N+](=O)[O-])cc1[N+](=O)[O-])C2=O | – | 41.1 | – |
